Several values for one entry are separate records, joined by “and”; a condition that tells them apart may be missing. Equal entries are not always repeated.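 Step 1: Grow cells in 96-well plates. Step 2: Expose to compound for 48 hours at 5 concentrations. Step 3: Interpolate endpoints linearly; if unreached, use highest concentration. At the GI50, growth is halved. TGI denotes the concentration required for complete inhibition of growth.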

Experiment in all cases: NCI tumour cell line growth inhibition, 48 h
For experiment [1], the system named is ACHN renal.
In experiment [2] the test system is SK-MEL-28 melanoma.
For experiment [3], the system named is EKVX NSCLC.
In experiment [4] the test system is OVCAR-5 ovarian.
In experiment [5] the test system is KM12 colon.
The test system of experiment [6] is HL-60(TB) leukemia.
In experiment [7] the test system is PC-3 prostate.
In experiment [8] the test system is NCI-H226 lung.
The subject of experiment [9] is SF-295 CNS.
Experiment [10] has as its system HCC-2998 colon.

With `COc1cc(N2CCC(N3CCN(C)CC3)CC2)ccc1Nc1ncc(Cl)c(Nc2ccccc2S(=O)(=O)C(C)C)n1`, the GI50 was 0.76 µM in experiment [1]; 1.74 µM in experiment [2]; 0.489 µM in [3]; 0.659 µM in [4]; 0.352 µM in experiment [5]; 0.327 µM in experiment [6]. Moreover, the GI50 in experiment [7] was 2.16 µM; in experiment [8] it was 0.461 µM; in experiment [9], 1.8 µM; in experiment [10], 1.07 µM. Moreover, the TGI was determined as 2.61 µM in experiment [1]; 3.41 µM in experiment [2]; 11.5 µM in experiment [3]; 5.48 µM in experiment [4]; 3.48 µM in experiment [5]; 1.4 µM in [6]. Besides, the TGI in experiment [7] was found to be 11.7 µM; in [8], 2.14 µM; in [9] it was 10.3 µM; in [10] it was 2.39 µM.

As for `CNC(=O)CN1CCC(Oc2cc3c(Nc4cccc(Cl)c4F)ncnc3cc2OC)CC1`, the GI50 in experiment [1] is < 0.0224 µM and 0.0561 µM; in experiment [2] it was 19.2 µM and > 7.55 µM; in experiment [3], < 0.0147 µM and 0.0154 µM; in [4], 1.9 µM and 1.56 µM; in [5], 17.3 µM and > 5.89 µM; in experiment [6], 26.9 µM and > 4.95 µM. In addition, the GI50 in experiment [7] is 17.5 µM and > 8.3 µM; in experiment [8], 13.9 µM and > 6.23 µM; in experiment [9] it was 12.5 µM and > 5.62 µM; in experiment [10], 15.9 µM and > 7.7 µM. Moreover, the TGI in experiment [1] was 25.6 µM and > 10 µM; in [2], 47.3 µM and > 10 µM; in experiment [4] it was 22.4 µM and > 10 µM; in [5], 32.4 µM and > 10 µM; in experiment [6], > 65.4 µM; in [7], > 69.1 µM. For the same molecule, the TGI was 42.1 µM and > 10 µM in experiment [8]; 29.3 µM and > 10 µM in experiment [9]; 34.6 µM and > 10 µM in [10].

With `CC1=CC(=O)c2ccc(C)cc2C1=O`, the TGI came out at 21 µM in experiment [1]; 22.7 µM in [2]; 23.9 µM in [3]; 35.4 µM in experiment [4]; 19.8 µM in experiment [5]; 5.4 µM in [6]. Also, the TGI is 44.1 µM in [7], 39.5 µM in experiment [8], 31.6 µM in experiment [9] and 34.7 µM in experiment [10].

In the case of `O=S(=O)(CCCCl)SCCCCl`, the TGI in experiment [1] is > 100 µM; in experiment [2] it was > 100 µM; in experiment [3] it was > 100 µM; in experiment [4], > 94.3 µM; in [5] it was > 100 µM; in [6], 24.5 µM. In addition, the TGI in experiment [7] was > 100 µM; in [8] it was > 100 µM; in experiment [9] it was > 93.4 µM; in experiment [10] it was > 100 µM.

As for `C=CCSSc1ncnc2c1ncn2C1OC(CO)C(O)C1O` (centres undefined), the GI50 in experiment [1] is 3.34 µM; in [2], 36.5 µM; in experiment [3], 69.3 µM; in [4], 4.29 µM; in [5] it was 3.24 µM; in experiment [6], 3.27 µM. Also, the GI50 in [7] was 2.28 µM; in experiment [8], 4.14 µM; in experiment [9], 2.58 µM; in experiment [10] it was 3.06 µM. The TGI in [1] was > 100 µM; in experiment [2], > 100 µM; in experiment [3], > 100 µM; in [4], > 100 µM; in experiment [5], > 39.9 µM; in [6], 19.9 µM. For the same molecule, the TGI was > 22.4 µM in [7], > 100 µM in [8], > 100 µM in experiment [9] and 60 µM in [10].

For `O=C(NCCCCCCNC(=O)OCc1ccc2c(Cl)cc(Cl)c(O)c2n1)OCc1ccc2c(Cl)cc(Cl)c(O)c2n1`, the GI50 in experiment [1] was 0.353 µM; in [2], 1.19 µM; in experiment [3] it was 1.51 µM; in experiment [4] it was 1.5 µM; in experiment [5], 1.34 µM; in experiment [6], 0.771 µM. Also, the GI50 in experiment [7] is 0.815 µM; in [8] it was 1.07 µM; in [9], 2.66 µM; in [10], 1.68 µM. Also, the TGI stood at 1.32 µM in experiment [1]; 2.42 µM in [2]; 3.08 µM in [3]; 3.01 µM in [4]; 2.95 µM in [5]; 4.29 µM in [6]. Besides, the TGI in experiment [7] was 2.42 µM; in experiment [8], 2.54 µM; in [9], 6.99 µM; in [10] it was 3.22 µM.

Turning to `Cc1nn(C)c2cc(N(C)c3ccnc(Nc4cccc(S(N)(=O)=O)c4)n3)ccc12`, the GI50 in experiment [1] is 6.71 µM; in [2], 9 µM; in experiment [3], 6.92 µM; in [4] it was 5.83 µM; in [5], 7.38 µM; in experiment [6], 5.76 µM. The GI50 was 7.17 µM in experiment [7], 5.16 µM in experiment [8], 10.1 µM in experiment [9] and 15.7 µM in experiment [10]. The TGI in experiment [1] was > 25 µM; in [2] it was > 25 µM; in [3], > 25 µM; in experiment [4], > 25 µM; in experiment [5] it was > 25 µM; in [6], 21.5 µM. Further, the TGI in experiment [7] was > 25 µM; in experiment [8], > 21.3 µM; in experiment [9] it was > 25 µM; in [10] it was > 25 µM.
